According to PubChem BioAssay AID248 (DTP/NCI, 2004):
Where “and” joins values, the source holds several entries; their conditions need not be identical. Equal values may be shown once. Toxic doses and inconclusive results are not listed. Rule as the data show it: active = T/C of 150% or more; inactive = T/C below 125%.

Test system: L1210 leukemia ip in BDF1 mice, survival T/C
Assay: NCI In Vivo Anticancer Drug Screen. Data for tumor model L1210 Leukemia (intraperitoneal) in B6D2F1 (BDF1) mice
Settings: higher = longer survival
Procedure, shortened: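 Mice bearing the transplanted tumor received compound or vehicle. Survival of the treated group was divided by that of the vehicle-treated control group to give the ratio.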

Measured: T/C

O=NN(CCCl)C(=O)NCCCl
inactive: endpoint: mean survival time, dose: 0.09 mg/kg/injection, schedule: Q01DX009 (ip), vehicle: saline 96 % of control | endpoint: mean survival time, dose: 0.09 mg/kg/injection, schedule: Q01DX009 (oral), vehicle: saline 100 % of control | endpoint: mean survival time, dose: 0.09 mg/kg/injection, schedule: Q## X024 (oral), vehicle: saline 102 % of control | endpoint: mean survival time, dose: 0.18 mg/kg/injection, schedule: Q01DX005 (ip), vehicle: saline 94 % of control | endpoint: mean survival time, dose: 0.18 mg/kg/injection, schedule: Q01DX009 (ip), vehicle: saline 101 % of control | endpoint: mean survival time, dose: 0.18 mg/kg/injection, schedule: Q01DX009 (oral), vehicle: saline 102 % of control | endpoint: mean survival time, dose: 0.18 mg/kg/injection, schedule: Q## X008 (ip), vehicle: saline 102 % of control | endpoint: mean survival time, dose: 0.18 mg/kg/injection, schedule: Q## X024 (oral), vehicle: saline 98 % of control | endpoint: mean survival time, dose: 0.32 mg/kg/injection, schedule: Q01DX001 (ip), vehicle: other 98 % of control | endpoint: mean survival time, dose: 0.36 mg/kg/injection, schedule: Q01DX Z (ip), vehicle: carboxymethylcellulose (CMC) 104 % of control | endpoint: mean survival time, dose: 0.37 mg/kg/injection, schedule: Q01DX001 (ip), vehicle: saline 104 % of control | endpoint: mean survival time, dose: 0.37 mg/kg/injection, schedule: Q01DX005 (ip), vehicle: saline 103 % of control | endpoint: mean survival time, dose: 0.37 mg/kg/injection, schedule: Q01DX005 (oral), vehicle: saline 93 % of control | endpoint: mean survival time, dose: 0.37 mg/kg/injection, schedule: Q01DX009 (ip), vehicle: saline 101 % of control | endpoint: mean survival time, dose: 0.37 mg/kg/injection, schedule: Q01DX009 (oral), vehicle: saline 97 % of control | endpoint: mean survival time, dose: 0.37 mg/kg/injection, schedule: Q01DX009 (sc), vehicle: saline 97 % of control | endpoint: mean survival time, dose: 0.37 mg/kg/injection, schedule: Q01DX015 (ip), vehicle: saline 115 % of control | endpoint: mean survival time, dose: 0.37 mg/kg/injection, schedule: Q## X003 (ip), vehicle: saline 107 % of control | endpoint: mean survival time, dose: 0.37 mg/kg/injection, schedule: Q## X008 (ip), vehicle: saline 109 % of control | endpoint: mean survival time, dose: 0.37 mg/kg/injection, schedule: Q## X024 (ip), vehicle: saline 110 % of control | endpoint: mean survival time, dose: 0.37 mg/kg/injection, schedule: Q## X024 (oral), vehicle: saline 100 % of control | endpoint: mean survival time, dose: 0.45 mg/kg/injection, schedule: Q01DX009 (ip), vehicle: saline + alcohol 99 % of control and 107 % of control | endpoint: mean survival time, dose: 0.63 mg/kg/injection, schedule: Q01DX001 (ip), vehicle: other 107 % of control | endpoint: mean survival time, dose: 0.73 mg/kg/injection, schedule: Q01DX Z (ip), vehicle: carboxymethylcellulose (CMC) 107 % of control | endpoint: mean survival time, dose: 0.75 mg/kg/injection, schedule: Q01DX001 (ip), vehicle: saline 105 % of control | endpoint: mean survival time, dose: 0.75 mg/kg/injection, schedule: Q01DX001 (sc), vehicle: saline 105 % of control | endpoint: mean survival time, dose: 0.75 mg/kg/injection, schedule: Q01DX005 (ip), vehicle: saline 108 % of control | endpoint: mean survival time, dose: 0.75 mg/kg/injection, schedule: Q01DX005 (oral), vehicle: saline 101 % of control | endpoint: mean survival time, dose: 0.75 mg/kg/injection, schedule: Q01DX009 (oral), vehicle: saline 116 % of control | endpoint: mean survival time, dose: 0.75 mg/kg/injection, schedule: Q01DX009 (sc), vehicle: saline 104 % of control | endpoint: mean survival time, dose: 0.75 mg/kg/injection, schedule: Q## X003 (ip), vehicle: saline 108 % of control | endpoint: mean survival time, dose: 0.75 mg/kg/injection, schedule: Q## X008 (ip), vehicle: saline 114 % of control | endpoint: mean survival time, dose: 0.75 mg/kg/injection, schedule: Q## X024 (oral), vehicle: saline 113 % of control | endpoint: mean survival time, dose: 1.0 mg/kg/injection, schedule: Q01DX Z (oral), vehicle: saline 117 % of control | endpoint: mean survival time, dose: 1.0 mg/kg/injection, schedule: Q04DX002 (ip), vehicle: saline + alcohol 105 % of control and 107 % of control | endpoint: mean survival time, dose: 1.0 mg/kg/injection, schedule: Q04DX004 (ip), vehicle: saline 106 % of control | endpoint: mean survival time, dose: 1.25 mg/kg/injection, schedule: Q01DX001 (ip), vehicle: other 101 % of control | endpoint: mean survival time, dose: 1.5 mg/kg/injection, schedule: Q01DX001 (ip), vehicle: saline 107 % of control | endpoint: mean survival time, dose: 1.5 mg/kg/injection, schedule: Q01DX001 (sc), vehicle: saline 107 % of control | endpoint: mean survival time, dose: 1.5 mg/kg/injection, schedule: Q01DX005 (oral), vehicle: saline 103 % of control | endpoint: mean survival time, dose: 1.5 mg/kg/injection, schedule: Q## X003 (ip), vehicle: saline 112 % of control | endpoint: mean survival time, dose: 1.75 mg/kg/injection, schedule: Q07DX Z (oral), vehicle: saline 105 % of control | endpoint: mean survival time, dose: 2.0 mg/kg/injection, schedule: Q01DX001 (ip), vehicle: Klucel (hydroxypropylcellulose) (HPC) 110 % of control | endpoint: mean survival time, dose: 2.0 mg/kg/injection, schedule: Q01DX001 (ip), vehicle: distilled water + alcohol 107 % of control | endpoint: mean survival time, dose: 2.0 mg/kg/injection, schedule: Q01DX001 (ip), vehicle: other 107 % of control and 111 % of control | endpoint: mean survival time, dose: 2.0 mg/kg/injection, schedule: Q01DX006 (iv), vehicle: saline 115 % of control | endpoint: mean survival time, dose: 2.0 mg/kg/injection, schedule: Q04DX002 (ip), vehicle: saline + alcohol 114 % of control | endpoint: mean survival time, dose: 2.0 mg/kg/injection, schedule: Q04DX004 (ip), vehicle: saline 118 % of control | endpoint: mean survival time, dose: 2.5 mg/kg/injection, schedule: Q01DX001 (ip), vehicle: other 114 % of control | endpoint: mean survival time, dose: 3.0 mg/kg/injection, schedule: Q01DX001 (ip), vehicle: saline 112 % of control | endpoint: mean survival time, dose: 3.0 mg/kg/injection, schedule: Q03DX Z (oral), vehicle: saline 117 % of control | endpoint: mean survival time, dose: 3.0 mg/kg/injection, schedule: Q## X003 (oral), vehicle: saline 112 % of control | endpoint: mean survival time, dose: 3.12 mg/kg/injection, schedule: Q01DX001 (ip), vehicle: saline 101 % of control and 106 % of control | endpoint: mean survival time, dose: 3.5 mg/kg/injection, schedule: Q07DX Z (oral), vehicle: saline 111 % of control | endpoint: mean survival time, dose: 5.0 mg/kg/injection, schedule: Q07DX003 (ip), vehicle: saline 104 % of control | endpoint: mean survival time, dose: 6.25 mg/kg/injection, schedule: Q01DX001 (ip), vehicle: saline 108 % of control and 110 % of control | endpoint: mean survival time, dose: 6.75 mg/kg/injection, schedule: Q03HX032 (ip), vehicle: saline + alcohol 103 % of control | endpoint: mean survival time, dose: 6.75 mg/kg/injection, schedule: Q## X032 (ip), vehicle: saline + alcohol 103 % of control | endpoint: mean survival time, dose: 12.0 mg/kg/injection, schedule: Q## X Z (ip), vehicle: saline 103 % of control | endpoint: mean survival time, dose: 12.5 mg/kg/injection, schedule: Q01DX001 (ip), vehicle: saline 118 % of control | endpoint: mean survival time, dose: 16.0 mg/kg/injection, schedule: Q01DX009 (ip), vehicle: carboxymethylcellulose (CMC) 102 % of control | endpoint: mean survival time, dose: 18.0 mg/kg/injection, schedule: Q## X006 (ip), vehicle: saline 116 % of control | endpoint: mean survival time, dose: 24.0 mg/kg/injection, schedule: Q01DX005 (ip), vehicle: saline 106 % of control | endpoint: mean survival time, dose: 24.0 mg/kg/injection, schedule: Q01DX005 (oral), vehicle: saline 119 % of control | endpoint: mean survival time, dose: 24.0 mg/kg/injection, schedule: Q01DX006 (ip), vehicle: saline 109 % of control | endpoint: mean survival time, dose: 24.0 mg/kg/injection, schedule: Q01DX009 (ip), vehicle: saline 117 % of control | endpoint: mean survival time, dose: 24.0 mg/kg/injection, schedule: Q01DX009 (oral), vehicle: saline 116 % of control | endpoint: mean survival time, dose: 24.0 mg/kg/injection, schedule: Q01DX009 (sc), vehicle: saline 117 % of control | endpoint: mean survival time, dose: 36.0 mg/kg/injection, schedule: Q01DX006 (ip), vehicle: saline 98 % of control | endpoint: mean survival time, dose: 40.0 mg/kg/injection, schedule: Q04DX004 (ip), vehicle: saline 94 % of control | endpoint: mean survival time, dose: 48.0 mg/kg/injection, schedule: Q01DX001 (ip), vehicle: Klucel (hydroxypropylcellulose) (HPC) 116 % of control | endpoint: mean survival time, dose: 48.0 mg/kg/injection, schedule: Q01DX006 (ip), vehicle: saline 94 % of control | endpoint: mean survival time, dose: 48.0 mg/kg/injection, schedule: Q## X024 (ip), vehicle: saline 119 % of control | endpoint: mean survival time, dose: 62.0 mg/kg/injection, schedule: Q04DX002 (ip), vehicle: saline + alcohol 107 % of control and 111 % of control | endpoint: mean survival time, dose: 64.0 mg/kg/injection, schedule: Q01DX Z (oral), vehicle: saline 94 % of control | endpoint: mean survival time, dose: 79.0 mg/kg/injection, schedule: Q01DX001 (oral), vehicle: saline 118 % of control | endpoint: mean survival time, dose: 88.0 mg/kg/injection, schedule: Q01DX001 (ip), vehicle: other 116 % of control | endpoint: mean survival time, dose: 96.0 mg/kg/injection, schedule: Q03DX Z (oral), vehicle: saline 108 % of control | endpoint: mean survival time, dose: 112.0 mg/kg/injection, schedule: Q07DX Z (oral), vehicle: saline 106 % of control | endpoint: mean survival time, dose: 128.0 mg/kg/injection, schedule: Q01DX001 (ip), vehicle: Klucel (hydroxypropylcellulose) (HPC) 106 % of control | endpoint: mean survival time, dose: 128.0 mg/kg/injection, schedule: Q01DX001 (ip), vehicle: other 98 % of control | endpoint: mean survival time, dose: 256.0 mg/kg/injection, schedule: Q01DX001 (ip), vehicle: Klucel (hydroxypropylcellulose) (HPC) 96 % of control | endpoint: mean survival time, dose: 256.0 mg/kg/injection, schedule: Q01DX001 (ip), vehicle: other 104 % of control | endpoint: median survival time, dose: 0.75 mg/kg/injection, schedule: Q01DX009 (ip), vehicle: saline 105 % of control | endpoint: median survival time, dose: 1.25 mg/kg/injection, schedule: Q01DX009 (ip), vehicle: saline 100 % of control and 112 % of control | endpoint: median survival time, dose: 24.0 mg/kg/injection, schedule: Q01DX009 (ip), vehicle: saline 95 % of control | endpoint: median survival time, dose: 30.0 mg/kg/injection, schedule: Q01DX005 (ip), vehicle: saline + alcohol 94 % of control and 102 % of control | endpoint: median survival time, dose: 30.0 mg/kg/injection, schedule: Q01DX009 (ip), vehicle: saline + alcohol 93 % of control
